US20210401827A1 (priority 2018, published 2021)
Read-outs that look alike come from different tables or passages of the source.

Key:
[1] = in vivo; cited from earlier work
[2] = human, in vivo
[3] = human, in vivo; remark: listed apart in the source

C=C1CC[C@@]2(O)[C@H]3Cc4ccc(O)c5c4[C@@]2(CCN3CC2CC2)[C@H]1O5 [Nalmefene, 17-cyclopropylmethyl-4,5α-epoxy-6-methylenemorphinan-3,14-diol]
adverse events with an incidence less than 1% [1]: bradycardia, arrhythmia, diarrhea, dry mouth, somnolence, depression, agitation, nervousness, tremor, confusion, withdrawal syndrome, myoclonus, pharyngitis, pruritus, and urinary retention | common adverse reactions with an incidence greater than 1% [1]: nausea, vomiting, tachycardia, hypertension, postoperative pain, fever, dizziness, headache, chills, hypotension, and vasodilation | Lambda z [2]: 0.094 h⁻¹ | AUCextrap ([2]; im, 1.5 mg): 22.6% | Cmax/D ([2]; im, 1.5 mg): 1.12 ng/mL/mg

O=C1CC[C@@]2(O)[C@H]3Cc4ccc(O)c5c4[C@@]2(CCN3CC2CC2)[C@H]1O5 [Naltrexone, 17-(cyclopropylmethyl)-4,5α-epoxy-3,14-dihydroxymorphinan-6-one]
λz [3]: 0.361 h⁻¹ | AUCextrap ([3]; im, 2 mg): 1.01% | Cmax/Dose ([3]; im, 2 mg): 2.27 ng/mL/mg
